These results are taken from US20230416334A1, “CELL-PENETRATING PEPTIDES” (FUNDACIÓ HOSPITAL UNIVERSITARI VALL D'HEBRON - INSTITUT DE …, priority 2020, published 2023).

The subject of assay [1] is binding of CD300f to plastic-immobilized SM. The assay can be described thus: Peptide inhibition of CD300f-Ig binding to plastic-immobilized sphingomyelin (epitope mapping). The conditions noted are these: co-incubation of peptide with CD300f-Ig, FIG. 1. Also noted: species or system human. The source says:
FIG. 1, related to Example 1, is a bar diagram showing the binding capacity of the indicated peptides to sphingomyelin (SM). They y-axis represents absorbance (%). “C” represents the control; “1” represents Peptide 1 of SEQ ID NO: 12; “2” represents Peptide 2 of SEQ ID NO: 13; “3” represents Peptide 3 of SEQ ID NO: 14; “4” represents Peptide 4 of SEQ ID NO: 15; “5” represents Peptide 5 of SEQ ID NO: 5; “6” represents Peptide 6 of SEQ ID NO: 6; “7” represents Peptide 7 of SEQ ID NO: 7; “8” represents Peptide 8 of SEQ ID NO: 16; and “9” represents Peptide 9 of SEQ ID NO: 17; and “10” represents Peptide 10 of SEQ ID NO: 18; FIG. 2, related to Example 1, is a bar diagram showing the binding capacity of the indicated peptides to sphingomyelin (SM). They y-axis represents absorbance (%). “A” represents the control; “B” represents DMSO; “C” represents Peptide 1; “D” represents Peptide 2; “E” represents Peptide 7; “F” represents Peptide 7 C5S (SEQ ID NO: 8); “G” represents Peptide 7 W3A (SEQ ID NO: 9); and “H” represents Peptide 7 R6G (SEQ ID NO: 10). In an attempt to identify the sites of interaction of CD300f with Sphingomyelin (SM), the inventors performed a peptide-based epitope mapping approach. 24 overlapping, 20mer peptides were designed with a 15-aa overlap between successive peptides covering the Ig and stem extracellular sequences of human CD300f. It was analyzed whether any of those 24 peptides could inhibit binding of CD300f to plastic-immobilized SM. Only three of them, peptides 5 (SEQ ID NO:5), 6 (SEQ ID NO:6) and 7 (SEQ ID NO:7), which contained the sequence […] Moreover, different amino acids of the sequence […] NO: 2) were mutated to try to map the interaction with the phospholipid.

The test system of assay [2] is HCT116 cells. Put plainly: Internalization of 5-DTAF labelled polymeric micelles by flow cytometry. It is filed as cell-based. To be noted: 1 mg/ml on 5-DTAF labelled Pluronic F127 micelles, vs non conjugated micelles, FIGS. 4 and 5. The source says: FIG. 4, related to Example 2, is a diagram showing the cell internalization rates of polymeric micelles conjugated to the indicated peptides in HCT116 cells. The y-axis represents fluorescence intensity (F.U.) (Mean±SEM) and the x-axis represents the time (min).
FIG. 5, related to Example 2, is a diagram showing the cell internalization rates of polymeric micelles conjugated to the indicated peptides in HCT116 cells. The y-axis represents fluorescence intensity (F.U.) (Mean±SEM) and the x-axis represents the time (min).
Polymeric micelles (PM) were prepared using the film hydration technique. Briefly, the polymers were individually weighted and dissolved in a mixture of methanol:ethanol (1:1). […]
Flow cytometry was used to verify the internalization of 5-DTAF-fluorescently labeled PM in MCF-7 and HCT116 cell lines. For the quantitative fluorescence-activated cell sorting (FACS), 2×10^4 cells were seeded in complete medium in 96 well plates for 24 hours to allow adhesion. […] The plate was analyzed in a cytometer Fortessa (BD Biosciences, USA). Data was analyzed with FCS Express 4 Flow research edition software (De Novo Software, Los Angeles, USA). […] For each sample, at least 10000 individual cells were collected and the mean fluorescence intensity was evaluated. […]
A general note: In flow cytometry, cells or beads pass a laser one at a time.

Turning to CVYRSGWETYLKWWCRGAIW [Peptide 5], the “inhibition of binding of CD300f to sphingomyelin (SM)” value in assay [1] is on record as “inhibited binding”. Turning to LKWWCRGAIWRDCKILVKTS [Peptide 7], the “inhibition of binding of CD300f to sphingomyelin (SM)” value in assay [1] is recorded as “inhibited binding”. The same measure, in the same setting: to GWETYLKWWCRGAIWRDCKI [Peptide 6] belongs “inhibited binding”.

B1: CD300f: whole CD300f protein, conjugated onto micelles and tested as CPP (protein, UniProt Q8TDQ1 20-290, looked up)
CMRF35-like molecule 1: TQITGPTTVNGLERGSLTVQCVYRSGWETYLKWWCRGAIWRDCKILVKTSGSEQEVKRDRVSIKDNQKNRTFTVTMEDLMKTDADTYWCGIEKTGNDLGVTVQVTIDPAPVTQEETSSSPTLTGHHLDNRHKLLKLSVLLPLIFTILLLLLVAASLLAWRMMKYQQKAAGMSPEQVLQPLEGDLCYADLTLQLAGTSPQKATTKLSSAQVDQVEVEYVTMASLPKEDISYASLTLGAEDQEPTYCNMGHLSSHLPGRGPEEPTEYSTISRP
modifications: conjugated onto micelles
notes: whole CD300f protein, conjugated onto micelles and tested as CPP
For the molecule B1, in assay [2], the “internalization of peptide- or protein-functionalized micelles” value is reported as “better CPPs than the ones currently available in the market”.
